Assay results published in patent EP0454444A1, “Glutarimide derivatives and herbicides” (NISSAN CHEMICAL INDUSTRIES LTD., priority 1990, dated 1991).

Tests used:
Assay in all cases: Herbicidal effect test by soil treatment
Type in all cases: in vivo
[1] = tested on: annual sedge (Cyperus microiria); conditions: three weeks after spraying
From the text: (§1) In a plastic box of 15 cm length, 22 cm width and 6 cm depth, there was placed a sterilized dilvial soil, and seeds of barnyardgrass (Echinochloa crusgalli), large crabgrass (Digitaria adscendens), annual sedge (Cyperus microiria), black nightshade (Solanum nigrum L.), hairly galinosoga (Galinsoga ciliat), rorippa ssp. (Rorippa atrovirens), rice (Oryza sativa), corn (Zea mays), wheat (Triticum aestivum), soybean (Glysine max) and cotton (Gossypium herbaceum) were sown mixedly. After covering soil to about 1 cm over the seeds, herbicides were sprayed evenly on the soil surface to predetermined proportions of the active ingredient In spraying, the wettable powder, emulsifiable concentrate, dry flowable or flowable in the above formulation examples were diluted with water and sprayed over the entire surface by means of a small sprayer. Three weeks after spraying, the herbicidal effect on crop plants including rice, corn, wheat, soybean, cotton and various kinds of weeds were examined according to the judgement criteria shown below. Judgement criteria
(§2) The above growth control rates are determined by measuring the top fresh weights of the treated plants and those of the non-treated plants, and culculated from the following formula: [formula]

[2] = tested on: black nightshade (Solanum nigrum L.); conditions: three weeks after spraying
From the text: as §1, §2

corn (Zea mays) = conditions: crop plant, three weeks after spraying
From the text: as §1, §2

[3] = tested on: cotton (Gossypium herbaceum); conditions: crop plant, three weeks after spraying
From the text: as §1, §2

[4] = tested on: hairly galinosoga (Galinsoga ciliat); conditions: three weeks after spraying
From the text: as §1, §2

[5] = tested on: large crabgrass (Digitaria adscendens); conditions: three weeks after spraying
From the text: as §1, §2

rice (Oryza sativa) = conditions: crop plant, three weeks after spraying
From the text: as §1, §2

[6] = tested on: rorippa ssp. (Rorippa atrovirens); conditions: three weeks after spraying
From the text: as §1, §2

soybean (Glysine max) = conditions: crop plant, three weeks after spraying
From the text: as §1, §2

[7] = tested on: wheat (Triticum aestivum); conditions: crop plant, three weeks after spraying
From the text: as §1, §2

C#CCN1C(=O)COc2ccc(N3C(=O)CC(C(F)(F)F)CC3=O)cc21 [1-24]
herbicidal effect, K (Cyperus microiria) ([1]; application amount 0.4 g/a): 5 (Growth control,rates of more than 90% (almost completely withered)) | herbicidal effect, K (Cyperus microiria) ([1]; application amount 0.8 g/a): 5 (Growth control,rates of more than 90% (almost completely withered)) | herbicidal effect, K (Cyperus microiria) ([1]; application amount 1.6 g/a): 5 (Growth control,rates of more than 90% (almost completely withered)) | herbicidal effect, H (Solanum nigrum L.) ([2]; application amount 0.4 g/a): 5 (Growth control,rates of more than 90% (almost completely withered)) | herbicidal effect, H (Solanum nigrum L.) ([2]; application amount 0.8 g/a): 5 (Growth control,rates of more than 90% (almost completely withered)) | herbicidal effect, H (Solanum nigrum L.) ([2]; application amount 1.6 g/a): 5 (Growth control,rates of more than 90% (almost completely withered)) | herbicidal effect, T (Zea mays) (corn (Zea mays); application amount 0.4 g/a): 0 (Growth control rates of less than 5% (substantially no effect)) | herbicidal effect, T (Zea mays) (corn (Zea mays); application amount 0.8 g/a): 2 (Growth control rates of 20 to 40%) | herbicidal effect, T (Zea mays) (corn (Zea mays); application amount 1.6 g/a): 4 (Growth control rates of 70 to 90%) | herbicidal effect, C (Gossypium herbaceum) ([3]; application amount 0.4 g/a): 0 (Growth control rates of less than 5% (substantially no effect)) | herbicidal effect, C (Gossypium herbaceum) ([3]; application amount 0.8 g/a): 1 (Growth control rates of 5 to 20%) | herbicidal effect, C (Gossypium herbaceum) ([3]; application amount 1.6 g/a): 3 (Growth control rates of 40 to 70%) | herbicidal effect, D (Galinsoga ciliat) ([4]; application amount 0.4 g/a): 5 (Growth control,rates of more than 90% (almost completely withered)) | herbicidal effect, D (Galinsoga ciliat) ([4]; application amount 0.8 g/a): 5 (Growth control,rates of more than 90% (almost completely withered)) | herbicidal effect, D (Galinsoga ciliat) ([4]; application amount 1.6 g/a): 5 (Growth control,rates of more than 90% (almost completely withered)) | herbicidal effect, M (Digitaria adscendens) ([5]; application amount 0.4 g/a): 5 (Growth control,rates of more than 90% (almost completely withered)) | herbicidal effect, M (Digitaria adscendens) ([5]; application amount 0.8 g/a): 5 (Growth control,rates of more than 90% (almost completely withered)) | herbicidal effect, M (Digitaria adscendens) ([5]; application amount 1.6 g/a): 5 (Growth control,rates of more than 90% (almost completely withered)) | herbicidal effect, R (Oryza sativa) (rice (Oryza sativa); application amount 0.4 g/a): 1 (Growth control rates of 5 to 20%) | herbicidal effect, R (Oryza sativa) (rice (Oryza sativa); application amount 0.8 g/a): 4 (Growth control rates of 70 to 90%) | herbicidal effect, R (Oryza sativa) (rice (Oryza sativa); application amount 1.6 g/a): 5 (Growth control,rates of more than 90% (almost completely withered)) | herbicidal effect, I (Rorippa indica) ([6]; application amount 0.4 g/a): 5 (Growth control,rates of more than 90% (almost completely withered)) | herbicidal effect, I (Rorippa indica) ([6]; application amount 0.8 g/a): 5 (Growth control,rates of more than 90% (almost completely withered)) | herbicidal effect, I (Rorippa indica) ([6]; application amount 1.6 g/a): 5 (Growth control,rates of more than 90% (almost completely withered)) | herbicidal effect, S (Glysine max) (soybean (Glysine max); application amount 0.4 g/a): 0 (Growth control rates of less than 5% (substantially no effect)) | herbicidal effect, S (Glysine max) (soybean (Glysine max); application amount 0.8 g/a): 0 (Growth control rates of less than 5% (substantially no effect)) | herbicidal effect, S (Glysine max) (soybean (Glysine max); application amount 1.6 g/a): 1 (Growth control rates of 5 to 20%) | herbicidal effect, W (Triticum vulgare) ([7]; application amount 0.4 g/a): 0 (Growth control rates of less than 5% (substantially no effect)) | herbicidal effect, W (Triticum vulgare) ([7]; application amount 0.8 g/a): 1 (Growth control rates of 5 to 20%) | herbicidal effect, W (Triticum vulgare) ([7]; application amount 1.6 g/a): 4 (Growth control rates of 70 to 90%)

CCOC(=O)c1cc(N2C(=O)CC(c3ccccc3)CC2=O)c(F)cc1Cl [1-29]
herbicidal effect, K (Cyperus microiria) ([1]; application amount 1.6 g/a): 5 (Growth control,rates of more than 90% (almost completely withered)) | herbicidal effect, K (Cyperus microiria) ([1]; application amount 3.2 g/a): 5 (Growth control,rates of more than 90% (almost completely withered)) | herbicidal effect, K (Cyperus microiria) ([1]; application amount 6.3 g/a): 5 (Growth control,rates of more than 90% (almost completely withered)) | herbicidal effect, H (Solanum nigrum L.) ([2]; application amount 1.6 g/a): 5 (Growth control,rates of more than 90% (almost completely withered)) | herbicidal effect, H (Solanum nigrum L.) ([2]; application amount 3.2 g/a): 5 (Growth control,rates of more than 90% (almost completely withered)) | herbicidal effect, H (Solanum nigrum L.) ([2]; application amount 6.3 g/a): 5 (Growth control,rates of more than 90% (almost completely withered)) | herbicidal effect, T (Zea mays) (corn (Zea mays); application amount 1.6 g/a): 0 (Growth control rates of less than 5% (substantially no effect)) | herbicidal effect, T (Zea mays) (corn (Zea mays); application amount 3.2 g/a): 0 (Growth control rates of less than 5% (substantially no effect)) | herbicidal effect, T (Zea mays) (corn (Zea mays); application amount 6.3 g/a): 0 (Growth control rates of less than 5% (substantially no effect)) | herbicidal effect, C (Gossypium herbaceum) ([3]; application amount 1.6 g/a): 0 (Growth control rates of less than 5% (substantially no effect)) | herbicidal effect, C (Gossypium herbaceum) ([3]; application amount 3.2 g/a): 0 (Growth control rates of less than 5% (substantially no effect)) | herbicidal effect, C (Gossypium herbaceum) ([3]; application amount 6.3 g/a): 0 (Growth control rates of less than 5% (substantially no effect)) | herbicidal effect, D (Galinsoga ciliat) ([4]; application amount 1.6 g/a): 5 (Growth control,rates of more than 90% (almost completely withered)) | herbicidal effect, D (Galinsoga ciliat) ([4]; application amount 3.2 g/a): 5 (Growth control,rates of more than 90% (almost completely withered)) | herbicidal effect, D (Galinsoga ciliat) ([4]; application amount 6.3 g/a): 5 (Growth control,rates of more than 90% (almost completely withered)) | herbicidal effect, R (Oryza sativa) (rice (Oryza sativa); application amount 1.6 g/a): 0 (Growth control rates of less than 5% (substantially no effect)) | herbicidal effect, R (Oryza sativa) (rice (Oryza sativa); application amount 3.2 g/a): 0 (Growth control rates of less than 5% (substantially no effect)) | herbicidal effect, R (Oryza sativa) (rice (Oryza sativa); application amount 6.3 g/a): 0 (Growth control rates of less than 5% (substantially no effect)) | herbicidal effect, I (Rorippa indica) ([6]; application amount 1.6 g/a): 5 (Growth control,rates of more than 90% (almost completely withered)) | herbicidal effect, I (Rorippa indica) ([6]; application amount 3.2 g/a): 5 (Growth control,rates of more than 90% (almost completely withered)) | herbicidal effect, I (Rorippa indica) ([6]; application amount 6.3 g/a): 5 (Growth control,rates of more than 90% (almost completely withered)) | herbicidal effect, S (Glysine max) (soybean (Glysine max); application amount 1.6 g/a): 0 (Growth control rates of less than 5% (substantially no effect)) | herbicidal effect, S (Glysine max) (soybean (Glysine max); application amount 3.2 g/a): 0 (Growth control rates of less than 5% (substantially no effect)) | herbicidal effect, S (Glysine max) (soybean (Glysine max); application amount 6.3 g/a): 0 (Growth control rates of less than 5% (substantially no effect)) | herbicidal effect, W (Triticum vulgare) ([7]; application amount 1.6 g/a): 0 (Growth control rates of less than 5% (substantially no effect)) | herbicidal effect, W (Triticum vulgare) ([7]; application amount 3.2 g/a): 0 (Growth control rates of less than 5% (substantially no effect)) | herbicidal effect, W (Triticum vulgare) ([7]; application amount 6.3 g/a): 0 (Growth control rates of less than 5% (substantially no effect))
